Data taken from ChEMBL document CHEMBL3271985, “Partition coefficients and surface areas of some alkylbenzenes” (J Med Chem, 1976).

Experiment: Octanol-water partition coefficient, log P of the compound

Row | SMILES | logP
1 | Cc1ccccc1C [O-XYLENE] | 3.12
2 | Cc1ccc(C)cc1 [P-XYLENE] | 3.15
3 | CC(C)c1ccccc1 [ISOPROPYLBENZENE] | 3.66
4 | Cc1cccc(C)c1 [M-XYLENE] | 3.2
5 | c1ccc(C2CCCC2)cc1 | 4.27
6 | c1ccc(C23CC4CC(CC(C4)C2)C3)cc1 | 5.43
7 | c1ccc2c(c1)CCC2 | 3.33
8 | c1ccc2c(c1)CCCC2 | 3.52
9 | c1ccc(C2CCCCC2)cc1 | 4.64
10 | c1cc2ccc1CCc1ccc(cc1)CC2 | 2.33
11 | CC(C)(C)c1ccccc1 [tert-Butylbenzene] | 4.11
